Laboratory results as given in the NIST ThermoML archive (doi:10.1021/je100747y).

Tests used:
[1] = 298.15 K; 101.33 kPa; Liquid
[2] = refractive index (Na D-line) (dimensionless); details: 298.15 K; 101.33 kPa; Liquid; Standard Abbe refractometry
[3] = refractive index (Na D-line) (dimensionless); xn = mol fraction of the nth substance listed; details: 298.15 K, 101 kPa, Liquid, Standard Abbe refractometry
[4] = xn = mol fraction of the nth substance listed; details: 298.15 K, 101 kPa, Liquid, Vibrating tube method

CC(=O)CC(C)=O [2,4-pentanedione]
Details	mass density [kg/m3]	refractive index
[1]	971	–
[2]	–	1.4509

CC(=O)CC(C)=O [2,4-pentanedione] + ClC(Cl)Cl
Details	mass density, [4] [kg/m3]	refractive index, [3]
x2 = 0.0498	988.5	1.4498
x2 = 0.0996	1009.2	1.4497
x2 = 0.2007	1052.6	1.4496
x2 = 0.3002	1097.2	1.4494
x2 = 0.4002	1144.3	1.4492
x2 = 0.4999	1193.6	1.4487
x2 = 0.5997	1245.4	1.4482
x2 = 0.7007	1300.4	1.4475
x2 = 0.7997	1356.8	1.4465
x2 = 0.899	1415.6	1.445
x2 = 0.9494	1446.3	1.4442

ClC(Cl)Cl [trichloromethane]
Details	mass density [kg/m3]	refractive index
[1]	1478	–
[2]	–	1.443
